From PMC12198407, “Preclinical and first-in-human of purinostat mesylate, a novel selective HDAC I/IIb inhibitor, in relapsed/refractory multiple myeloma and lymphoma” (Signal Transduction and Targeted Therapy, 2025)
Where two headings read alike, the source gives them in different places.

Legend:
HDAC1 = HDAC1 (Homo sapiens, UniProt Q13547); experiment: HDAC enzyme activity in vitro; format: biochemical
[1] = system: mouse BM-derived osteoclasts (M-CSF, RANKL); experiment: Osteoclast formation, TRAP staining; format: cell-based, C57BL/6 mice; details: M-CSF and RANKL induced
Description: Primary mouse BM cells were collected from 6-to-8 weeks C57BL/6 mice, and 1.0 × 10^5 cells were seeded into 48-well plates with α-MEM containing 10% FBS and 40 ng/mL M-CSF (PeproTech, catalog # 315-02) for 3 days to recruit macrophage and then induce osteoclast differentiation plus 50 ng/mL RANKL (R&D, catalog # 462-TEC-010/CF) with or without indicated concentration of PM for 4 days. Half-media changes were carried out every 2 days. The TRAP staining kit was purchased from Sigma-Aldrich (CS0704), and TRAP staining was performed according to the kit instructions.

[2] = system: diffuse large B-cell lymphoma (DLBCL) cells from patient C; experiment: Cell apoptosis analysis, primary cells; format: cell-based, human; details: 5 nM, 48 h
Description: (§1) CD138^+, CD38^+, or CD20^+ primary cells were obtained from plasma cell leukemia patients and DLBCL patients who had relapsed after multiple drug therapies. These patient samples were sourced from West China Hospital and had been approved by the clinical ethics committee of West China Hospital of Sichuan University (Chengdu, China). The clinical information of these patients was summarized in Supplementary Table 2. The patient primary cells were cultured in 6-well plates at a density of 1×10^6 cells/mL, and treated with control, PM, panobinostat, Pom and DXM at indicated concentrations for 48 hours. CD138, CD38, and CD20 monoclonal antibodies, Annexin V-APC and 7AAD apoptosis detection kits were used following the manufacturer’s instructions. The apoptosis cells were analyzed by flow cytometry (Thermo, AttuneTMNxT).

[3] = system: primary MM cells from relapsed patients A and B; experiment: Cell apoptosis analysis, primary cells; format: cell-based, human; details: 5 nM, 48 h
Description: as §1

[4] = system: class I HDAC substrates histone H3 and H4 in SUDHL-6, Daudi, Raji, Ramos, RPMI-8226; experiment: Cellular acetylation of histone H3 and H4; format: cell-based, human
From the text: The results of these cell experiments were consistent with the in vitro enzyme activity assay results.

HDAC8 = HDAC8 (Homo sapiens, UniProt Q9BY41); experiment: HDAC enzyme activity in vitro; format: biochemical
[5] = Pharmacokinetics, intravenous; format: in vivo, SD rats; details: for AUC(0-t) / half-life / Vd / clearance / C0: both sexes, SD, rat, plasma, iv; for Vd: read-out: Vdss; for clearance: read-out: plasma clearance (CL); for increase in AUC0-last for tenfold increase in dose: 1 to 10 mg/kg
Description: After a single intravenous injection of Purinostat Mesylate at doses of 1, 3, and 10 mg/kg, the average initial concentrations (C0) in male and female SD rats were 736 ± 66.5, 2880 ± 566, and 11500 ± 1790 ng/mL, respectively. […] The half-lives (T1/2) were 3.79 ± 0.511, 4.21 ± 0.248, and 6.24 ± 1.57 min, respectively. The area under the curve (AUC0-last) values were 55.3 ± 3.68, 248 ± 36.1, and 1280 ± 122 ng.h/mL, respectively. After daily intravenous injections of 3 mg/kg Purinostat Mesylate for 7 consecutive days, the average AUC0-last on day 7 for both male and female rats was 332 ± 43.6 ng.h/mL.

[6] = system: serum cytokines and T cells in PB; experiment: Phase I trial, serum cytokines and PB T cells in responders; format: in vivo, human; details: after 1 week
[7] = Bone marrow micronucleus test; format: in vivo, NIH mice; details: 20, 40, 60, 80 mg/kg i.v. daily for 3 days
Description: In this experiment, 90 SPF-grade NIH mice (half male and half female) were randomly divided into 7 groups: a negative control group (0.9% sodium chloride injection, intravenous injection, 10 mL/kg), an excipient control group (blank formulation, intravenous injection, 10 mL/kg), a positive control group (cyclophosphamide 40 mg/kg, intraperitoneal injection, 10 mL/kg), and four groups for intravenous injection of Purinostat Mesylate at low, medium, high, and highest doses (20, 40, 60, and 80 mg/kg, intravenous injection, 10 mL/kg). The negative control and positive control groups each consisted of 20 mice, while the other groups each consisted of 10 mice, with an equal number of males and females. Mice in each group were administered the specified doses once daily for 3 consecutive days, while the positive control group received only a single dose. Twenty to twenty-four hours after the last administration, all mice in each group were euthanized, and femoral bone marrow smears were prepared. The smears were stained with Giemsa and observed under an oil immersion microscope. For each mouse, 4000 polychromatic erythrocytes (PCEs) were counted to calculate the micronucleus incidence (‰), while 500 bone marrow erythrocytes were counted to determine the ratio of polychromatic erythrocytes to total erythrocytes.

[8] = system: BCR-ABL positive B-ALL PDX; experiment: PDX model of clinical B-ALL patient; format: in vivo, NOD/SCID mice
From the text: A clinical sample from a B-ALL patient was obtained, characterized by BCR-ABL positivity and relapse after first-line treatment.

Sequence of HDAC8 (Q9BY41 whole entry): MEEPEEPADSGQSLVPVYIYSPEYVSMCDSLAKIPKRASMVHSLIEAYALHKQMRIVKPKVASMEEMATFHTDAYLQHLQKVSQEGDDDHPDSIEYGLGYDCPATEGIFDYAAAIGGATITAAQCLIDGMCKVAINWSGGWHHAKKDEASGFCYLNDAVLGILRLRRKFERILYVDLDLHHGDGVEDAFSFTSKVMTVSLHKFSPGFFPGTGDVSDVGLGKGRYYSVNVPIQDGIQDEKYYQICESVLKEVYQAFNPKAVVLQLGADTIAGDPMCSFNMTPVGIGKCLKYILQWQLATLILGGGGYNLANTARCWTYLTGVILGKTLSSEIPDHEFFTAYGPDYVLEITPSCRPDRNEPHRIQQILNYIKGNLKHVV
Sequence of HDAC1 (Q13547 whole entry): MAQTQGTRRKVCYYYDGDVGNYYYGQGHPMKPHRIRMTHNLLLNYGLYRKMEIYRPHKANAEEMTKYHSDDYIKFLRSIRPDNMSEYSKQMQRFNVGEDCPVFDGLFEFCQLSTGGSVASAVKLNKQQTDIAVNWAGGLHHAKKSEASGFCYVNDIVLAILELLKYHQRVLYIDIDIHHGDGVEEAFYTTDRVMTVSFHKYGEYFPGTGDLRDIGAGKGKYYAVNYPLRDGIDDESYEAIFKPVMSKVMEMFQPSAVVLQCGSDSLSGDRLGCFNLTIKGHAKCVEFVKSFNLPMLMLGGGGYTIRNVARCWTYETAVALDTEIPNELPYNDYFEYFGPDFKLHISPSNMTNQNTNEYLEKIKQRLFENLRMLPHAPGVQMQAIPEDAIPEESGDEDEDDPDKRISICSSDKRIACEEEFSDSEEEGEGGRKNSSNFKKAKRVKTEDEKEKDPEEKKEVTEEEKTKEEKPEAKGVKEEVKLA
Description for T315I Bcr-Abl B-ALL: Subcutaneous or orthotopic tumor models were established using NOD/SCID mice for human-derived lymphoma, multiple myeloma cell lines, and samples from clinical B-ALL patients. The Ighmyc transgenic mice and primary B-ALL models were induced using C57 mouse strains. The experimental doses of Purinostat Mesylate include 1.25, 2.5, 5, 10, and 20 mg/kg, administered via tail vein (i.v.) three times a week. In each model experiment, the positive control drugs included the HyperCVAD regimen (cyclophosphamide, doxorubicin, vincristine, dexamethasone, methotrexate, and cytarabine) simulating clinical treatment for double-hit lymphoma, the CODOX regimen (cyclophosphamide, doxorubicin, vincristine, methotrexate, and cytarabine) simulating clinical treatment for Burkitt lymphoma, as well as lenalidomide (L), bortezomib (B), dexamethasone (D), and LBH589 lactate, which is marketed for relapsed or refractory multiple myeloma. In the subcutaneous tumor model experiments using human-derived tumor cell lines, the inhibitory effect of Purinostat Mesylate on tumors was assessed by measuring tumor volume (TV), tumor weight, relative tumor volume (RTV), and relative tumor growth rate (T/C). Additionally, in some model experiments, satellite groups were designed, where animals in these groups were not sacrificed at the same treatment endpoint and received extended treatment. […]

For `CN(Cc1nc2c(N3CCOCC3)nc(-c3ccc(N)cc3)nc2n1C)c1ncc(C(=O)NO)cn1.CS(=O)(=O)O` [PM, 2-(((2-(4-Aminophenyl)-9-methyl-6-(4-morpholinyl)-9H-purine-8-yl)methyl)methylamino)-N-hydroxy-5-pyrimidine-carboxamide Mesylate], the IC50 (HDAC1) was 0.81 nM, the median survival time (T315I Bcr-Abl B-ALL; 5 mg/kg, solvent control 44 days) was “greater than 80 days” and the median survival time (T315I Bcr-Abl B-ALL; 10 mg/kg) was “greater than 80 days”. The “mature osteoclast formation (TRAP staining)” value [1] was “obviously suppressed mature osteoclast cells formation”, the apoptosis [2] was 82.1% and the apoptosis ([3]; patient A) was 92.9%. For the same compound, the apoptosis ([3]; patient B) was 82.0%, the “concentration inducing increased acetylation of histone H3 and H4” value [4] was 0.3 to 1 nM and the IC50 (HDAC8) was 3.8 nM. For the same compound, the AUC(0-t) ([5]; 1 mg/kg, read-out: AUC0-last) was 55.3 ± 3.68 ng·h/mL, the half-life ([5]; 1 mg/kg, read-out: T1/2) was 3.79 ± 0.511 min and the Vd ([5]; 1 mg/kg) was 1.43 ± 0.135 L/kg. The clearance ([5]; 1 mg/kg) was 301 ± 20 mL/min/kg, the AUC(0-t) ([5]; 3 mg/kg, 3 mg/kg daily i.v. for 7 days, read-out: AUC0-last on day 7) was 332 ± 43.6 ng·h/mL and the AUC(0-t) ([5]; 3 mg/kg, read-out: AUC0-last) was 248 ± 36.1 ng·h/mL. For the same compound, the half-life ([5]; 3 mg/kg, read-out: T1/2) was 4.21 ± 0.248 min, the Vd ([5]; 3 mg/kg) was 1.13 ± 0.241 L/kg and the clearance ([5]; 3 mg/kg) was 205 ± 36.4 mL/min/kg. The AUC(0-t) ([5]; 10 mg/kg, read-out: AUC0-last) was 1280 ± 122 ng·h/mL, the half-life ([5]; 10 mg/kg, read-out: T1/2) was 6.24 ± 1.57 min and the Vd ([5]; 10 mg/kg) was 0.948 ± 0.125 L/kg. The clearance ([5]; 10 mg/kg) was 131 ± 12.8 mL/min/kg, the C0 ([5]; 1 mg/kg single i.v.) was 736 ± 66.5 ng/mL and the C0 ([5]; 3 mg/kg single i.v.) was 2880 ± 566 ng/mL. For the same compound, the C0 ([5]; 10 mg/kg single i.v.) was 11500 ± 1790 ng/mL, the half-life ([5]; single i.v., range over doses, read-out: half-life) was 3.79 to 6.24 min and the “increase in AUC0-last for tenfold increase in dose” value ([5]; female rats) was 24.4 fold. For the same compound, the “increase in AUC0-last for tenfold increase in dose” value ([5]; male rats) was 21.7 fold, the “proportion of CD3+CD4+ T cells in PB” value ([6]; before 4.12%) was 6.49% and the “proportion of CD3+CD8+ T cells in PB” value ([6]; before 4.30%) was 9.56%. For the same compound, the “proportion of CD3+ T cells in PB” value ([6]; before 8.42%) was 16.05%, the “bone marrow micronucleus test result” value [7] was “negative” and the median survival time ([8]; 2.5 mg/kg, solvent control 21 days) was 66 days. It also gave a median survival time ([8]; 10 mg/kg) of 73 days.
